This note sets out measurements from patent EP0542497A1, “Heterocyclic compounds” (THE WELLCOME FOUNDATION LIMITED, priority 1991, dated 1993).

In data set [1] the target is T1, human dihydrofolate reductase (Homo sapiens, UniProt P00374).
T1 sequence (P00374 1-187): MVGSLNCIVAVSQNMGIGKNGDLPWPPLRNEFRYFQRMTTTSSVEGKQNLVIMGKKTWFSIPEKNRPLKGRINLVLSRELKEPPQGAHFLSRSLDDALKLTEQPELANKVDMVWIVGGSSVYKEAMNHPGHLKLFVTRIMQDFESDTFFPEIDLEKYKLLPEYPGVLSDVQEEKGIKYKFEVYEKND
As to the kind of experiment: DHFR I50, human enzyme. The data set is classed as biochemical.

Another data set concerns the target T2, DHFR (Candida albicans, UniProt P22906).
T2 sequence (P22906 1-192): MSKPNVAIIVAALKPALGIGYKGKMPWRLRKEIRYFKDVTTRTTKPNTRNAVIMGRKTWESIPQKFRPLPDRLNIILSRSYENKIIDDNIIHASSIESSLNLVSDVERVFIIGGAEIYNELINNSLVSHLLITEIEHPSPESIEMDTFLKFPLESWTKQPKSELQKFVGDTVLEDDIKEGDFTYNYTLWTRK
As to the kind of experiment: biochemical. The following applies: C.albicans enzyme; read-out: DHFR I50 C.albicans.

The test system of data set [2] is Ehrlich ascites carcinoma. As to the kind of experiment: Cytotoxicity in cell culture (inhibition of cell growth). The note with it: mouse line, continuous exposure 72 hours. The class given is cell-based. The method, then:
(§1) The cytotoxic effects of various compounds were measured by the inhibition of mammalian cell growth in culture. Cell lines were grown in RPMI-1640 media prepared without folic acid but supplemented with 10nM calcium leucovorin, 25mM HEPES and 10% dialysed fetal bovine serum. In the case of human medulloblastoma cells (Daoy), the media (containing undialysed 10% fetal bovine serum) was pretreated with the enzyme thymidine phosphorylase (20 units/ml for 30 mins. at 37°C) to remove endogenous thymidine. Cells were seeded into 96 well microtiter plates (at densities determined to give log phase growth of control cells at the end of the assay) in 150µl of medium and grown at 37°C in a humidified incubator at 6% CO₂ for 24 hours. Compounds were prepared in media at four times the highest concentration to be tested; two-fold serial dilutions were made, and compounds were added to cells. […] The EC₅₀, defined as the concentration of compound required to reduce growth to 50% of the control, was determined from a plot of per cent inhibition versus log concentration. Cells were continuously exposed to inhibitor for 72 hours.

The subject of another data set is CCRF-CEM T cells. The description is as above. The data set is classed as cell-based. The following applies: human line, continuous exposure 72 hours. The method, then:
as §1

Data set [3] relates to L cells (derived from connective tissue). The description is as above. The data set is classed as cell-based. The following applies: mouse line, continuous exposure 72 hours. The method, then: as §1
Data set [4] deals with HCT8 colon adenocarcinoma. The data set is described as above. The data set is classed as cell-based. The note with it: HCT-8, human line, continuous exposure 72 hours. As to the method: as §1
In the next data set the test system is P388 lymphoid neoplasm. The description is as above. The class given is cell-based. The following applies: mouse line, continuous exposure 72 hours. The method, then:
as §1

The test system of data set [5] is KB3-1 epidermoid carcinoma. The data set is described as above. The class given is cell-based. The following applies: KB 3-1, human line, continuous exposure 72 hours. As to the method:
as §1

Another data set relates to D98 bone marrow cells. The data set is described as above. The note with it: human line, continuous exposure 72 hours. The class given is cell-based. The method, then: as §1
The subject of another data set is GC3C1 colon carcinoma. The description is as above. The class given is cell-based. The note with it: GC3/C1, human line, continuous exposure 72 hours. As to the method: as §1
Data set [6] relates to MCF7 breast adenocarcinoma. The description is as above. The class given is cell-based. The note with it: human line, continuous exposure 72 hours. As to the method:
as §1

The next data set has as its system Daoy medulloblastoma. The data set is described as above. The class given is cell-based. The following applies: human line, continuous exposure 72 hours, medium pretreated with thymidine phosphorylase. The method, then:
as §1

In the next data set the test system is S180 sarcoma. The description is as above. The class given is cell-based. The following applies: S-180, mouse line, continuous exposure 72 hours. As to the method: as §1
Data set [7] is described as follows: Brain distribution in mice (brain and plasma concentrations by HPLC). The class given is in vivo. The following applies: female CD1 mice, 30 or 40 minutes after dose; Compound 1 17mg/kg i.v., Compound 2 10mg/kg i.v., piritrexim 200mg/kg i.p., trimetrexate 100mg/kg i.p.; average of several experiments. As to the method: Female CD1 mice were dosed with Compound 1 (17mg/kg, i.v.), Compound 2 (10mg/kg, i.v.), piritrexim (200mg/kg,i.p.) or trimetrexate (100mg/kg, i.p.). Brain and plasma samples were collected 30 or 40 minutes later. The drugs were extracted from the samples, and their concentrations were determined using HPLC. The numbers represent the average of several experiments.

Counter-ions that a name gives are not always drawn.

For the compound `CCCc1cc2c3c(N)nc(N)nc3ccc2n1C(CC)CC` [Compound 9b, 1,3-diamino-7-(1-ethylpropyl)-8-propyl-7H-pyrrolo(3,2-f)quinazoline], the results for the IC50 (in data set [1]; at DHFR) were 1.3 nM and 1.8 nM, respectively.
Turning to `CCc1cc2c3c(N)nc(N)nc3ccc2n1C(C)CC` (stereo not drawn) [Compound 9e, 1,3-diamino-8-ethyl-7-sec-butyl-7H-pyrrolo(3,2-f)quinazoline], the IC50 (in [1]; at DHFR) was less than 1 nM each time.
Take `CCC(C)n1ccc2c3c(N)nc(N)nc3ccc21` (stereo not drawn) [Compound 7a, 1,3-diamino-7-sec-butyl-7H-pyrrolo(3,2-f)quinazoline]: the IC50 in data set [1] is 18 nM; on DHFR it was 10 nM.
As for `CCC(CC)n1c(C(C)C)cc2c3c(N)nc(N)nc3ccc21` [Compound 9d, 1,3-diamino-7-(1-ethylpropyl)-8-isopropyl-7H-pyrrolo(3,2-f)quinazoline], the IC50 (in data set [1]; at DHFR) was less than 1 nM each time.
On to `CCC(C)(C)n1c(C)cc2c3c(N)nc(N)nc3ccc21` [Compound 10b, 1,3-diamino-7-(1,1-dimethylpropyl)-8-methyl-7H-pyrrolo(3,2-f)quinazoline], for which the IC50 (in [1]; at DHFR) was less than 1 nM in each case.
As to `CCC(C(C)C)n1ccc2c3c(N)nc(N)nc3ccc21` (stereo not drawn) [Compound 7c, 1,3-diamino-7-(1-ethyl-2-methylpropyl)-7H-pyrrolo(3,2-f)quinazoline], the IC50 in data set [1] is less than 2 nM; at DHFR, 3 nM.
In the case of `COCC(COC)n1ccc2c3c(N)nc(N)nc3ccc21` [Compound 7e, 1,3-diamino-7-(2-methoxy-1-methoxymethyl)ethyl-7H-pyrrolo(3,2-f)quinazoline], the IC50 stood at 8.4 nM in data set [1] and 8.9 nM on DHFR.
The matching figures for `CCC(CC)n1c(CCCCl)cc2c3c(N)nc(N)nc3ccc21` [Compound 9f, 1,3-diamino-8-(3-chloropropyl)-7-(1-ethylpropyl)-7H-pyrrolo(3,2-f)quinazoline]: less than 1 nM and 4.3 nM.
Take `CC(C)n1c(C(C)(C)C)cc2c3c(N)nc(N)nc3ccc21` [Compound 9c, 1,3-diamino-8-tert-butyl-7-isopropyl-7H-pyrrolo(3,2-f)quinazoline]: the IC50 (in data set [1]; on DHFR) was less than 1 nM throughout.
Take `CCc1cc2c3c(N)nc(N)nc3ccc2n1C(CC)CC` [Compound 6, 1,3-Diamino-8-ethyl-7-(1-ethylpropyl)-7H-pyrrolo(3,2-f)quinazoline]: the IC50 (in [1]; on DHFR) was less than 1 nM in each case.
Turning to `CC(C)n1ccc2c3c(N)nc(N)nc3ccc21` [Compound 7d, 1,3-diamino-7-isopropyl-7H-pyrrolo(3,2-f)quinazoline], the IC50 in [1] was 48 nM; on DHFR it was 35 nM.
As to `Nc1nc(N)c2c(ccc3c2ccn3C2C=CCCC2)n1` (stereo not drawn) [Compound 7g, 1,3-diamino-7-(2-cyclohexen-1-yl)-7H-pyrrolo(3,2-f)quinazoline], the IC50 was determined as 33 nM in data set [1] and 6 nM on DHFR.
In the case of `CN(Cc1cnc2nc(N)nc(N)c2n1)c1ccc(C(=O)N[C@@H](CCC(=O)O)C(=O)O)cc1` [Methotrexate, N-[4[[(2,4-diamino-6-pteridinyl)methyl]methylamino]benzoyl]-L-glutamic acid, reference compound], the EC50 (as a rule, the concentration that produces a half-maximal response) is 8.5 nM in data set [2]; 1.9 nM in the data set with CCRF-CEM T cells; 75 nM in data set [3]; 7.3 nM in [4]; 2.7 nM in the data set with P388 lymphoid neoplasm; 20 nM in data set [5]. The EC50 in the data set with D98 bone marrow cells turned out to be 47 nM; in the data set with GC3C1 colon carcinoma it was 12 nM; in [6] it was 12 nM; with Daoy medulloblastoma, 21 nM; in the data set on S180 sarcoma it was 18.7 nM.
As for `CCCC(CCC)n1ccc2c3c(N)nc(N)nc3ccc21` [Compound 4, 1,3-Diamino-7-(1-propylbutyl)-7H-pyrrolo[3,2-f]quinazoline hydrochloride], the IC50 is less than 2 nM in data set [1] and less than 1 nM on DHFR.
The matching figures for `Nc1nc(N)c2c(ccc3c2ccn3C2CCCCC2)n1` [Compound 7f, 1,3-diamino-7-cyclohexyl-7H-pyrrolo(3,2-f)quinazoline]: 44 nM and 3 nM.
For `CCC(CC)n1c(COC)cc2c3c(N)nc(N)nc3ccc21` [Compound 9a, 1,3-diamino-7-(1-ethylpropyl)-8-(methoxymethyl)-7H-pyrrolo (3,2-f)quinazoline] the same measures were 3.3 nM and 4.1 nM.
On to `CCCC(CC)n1ccc2c3c(N)nc(N)nc3ccc21` (stereo not drawn) [Compound 3, 1,3-Diamino-7-(1-ethylbutyl)-7H-pyrrolo[3,2-f]quinazoline], for which the IC50 in data set [1] is less than 1 nM; at DHFR, 2 nM.
As to `COc1cc(NCc2ccc3nc(N)nc(N)c3c2C)cc(OC)c1OC` [Trimetrexate, 5-methyl-6-[[(3,4,5-trimethoxyphenyl)amino]methyl]-2,4-quinazolinediamine, reference compound], in data set [7], the Tissue concentration brain stood at 1.4 µg/g and the Tissue concentration plasma came out at 13 µg/mL.
For `CCCCc1cc2c3c(N)nc(N)nc3ccc2n1C(C)(C)C` [Compound 10a, 1,3-diamino-8-butyl-7-tert-butyl-7H-pyrrolo(3,2-f)quinazoline], the IC50 on DHFR amounted to 7 nM.
`Cc1cc2c3c(N)nc(N)nc3ccc2n1C(C)C` [Compound 8a, 1,3-diamino-7-isopropyl-8-methyl-7H-pyrrolo(3,2-f)quinazoline]: the IC50 worked out at 9 nM in data set [1] and 4 nM on DHFR.
Consider `CCCC(C)n1ccc2c3c(N)nc(N)nc3ccc21` (stereo not drawn) [Compound 7b, 1,3-diamino-7-(1-methylbutyl)-7H-pyrrolo(3,2-f)quinazoline], for which the IC50 is 11 nM in data set [1] and 7 nM at DHFR.
Take `COc1ccc(OC)c(Cc2cnc3nc(N)nc(N)c3c2C)c1` [Piritrexim, 2,4-diamino-6(2,5-dimethoxybenzyl)5-methylpyrido(2,3-d)pyrimidine, reference compound]: the EC50 in [2] amounted to 4 nM; in the data set with CCRF-CEM T cells it was 15 nM; in data set [3] it was 5.2 nM; in data set [4] it was 1.3 nM; with P388 lymphoid neoplasm it was 23 nM; in data set [5], 340 nM. In addition, the EC50 in the data set on D98 bone marrow cells stood at 195 nM; with GC3C1 colon carcinoma, 7.6 nM; in data set [6], 175 nM; with Daoy medulloblastoma it was 48 nM; with S180 sarcoma, 10 nM. The Tissue concentration brain in [7] worked out at 2.3 µg/g. In data set [7], this compound returned a Tissue concentration plasma of 4.2 µg/mL.
